Data: patent US20220202818A1, “COMBINATION WITH CHECKPOINT INHIBITORS TO TREAT CANCER” (The Regents of the University of Michigan, priority 2019, published 2022)

Tests used:
KPC pancreatic tumors = test: In vivo efficacy of MOL-211 alone and with PD-1 antibody in mice bearing KPC pancreatic tumors
Method: In vivo studies were conducted to evaluate the efficacy of MOL-211 alone and in combination with PD-1 antibody in mice bearing KPC pancreatic tumors (FIG. 1A-FIG. 1E). Mice were treated daily with MOL-211 (50 mg/kg) administered by oral gavage; anti-PD-1 antibody was administered twice a week via IP injection. Mice were analyzed subsequent to tumor implantation for over 90 days using a vehicle control; MOL-211 at 50 mg/kg; anti-PD-1 antibody at 10 mg/kg; and a combination of MOL-211 and anti-PD-1.
A partial responder (PR) is defined as a tumor that regressed to 50% of the baseline tumor volume. A complete responder (CR) is defined as a tumor below the limits of palpation (40 mg). The ΔT/ΔC ratio is the ratio of tumor volume change (treated/control) from first day of treatment to last day of treatment. Median ILS represents median increase in lifespan.

[1] = system: SCC7 head and neck tumors; test: In vivo study in C3H mice bearing SCC7 head and neck tumors
Method: (§1) Female 6- to 7-week old C3H mice or BALB/c mice were implanted subcutaneously with 1×10^6 cultured SCC7 cells or CT-26 (murine colorectal carcinoma) cells into the region of the right axilla. Female 6- to 7-week old BALB/c mice were implanted with 2×10^6 cultured EMT-6 (murine mammary carcinoma) cells subcutaneously into the mammary fat pad. Mice were randomized into treatment groups and treatments initiated when tumors reached 60 to 100 mg. MOL-211 was administered daily by oral gavage at a dose of 50 mg/kg for the duration of the study and was prepared as a 5 mg/mL solution in 1:2 PG:1% Tween80/Na3PO4, based upon individual animal body weight (0.2 mL/20 g). PD-1 antibody was purchased from BioXcell (Lebanon, N.H.) and administered intraperitoneally (IP) at a dose of 10 mg/kg every third day. Subcutaneous tumor volume and body weights were measured three times a week. Tumor volumes were calculated by measuring two perpendicular diameters with calipers and using the formula: tumor volume=(length×width^2)/2. Individual animals were dosed until progression, defined as the time at which tumor burden reached 1000 mg. […] Animal body weight was monitored three times weekly (FIG. 4D, FIG. 5D, FIG. 6C).

[2] = system: CT-26 (murine colorectal carcinoma) tumors; test: In vivo study in BALB/c mice bearing CT-26 (murine colorectal carcinoma) tumors; conditions: FIG. 5A
Method: as §1

[3] = system: EMT-6 (murine mammary carcinoma) tumors; test: In vivo study in female BALB/c mice bearing EMT-6 (murine mammary carcinoma) tumors; conditions: EMT-6 tumor-bearing mice; FIG. 6B
Method: as §1

PD-L1 = test: Western blot of PD-L1 protein in KPC-2 cells treated in vitro; format: cell-based; conditions: KPC-2 cells in culture; 10 micromolar; 24 and 48 hours; compared to DMSO
Method: KPC-2 cells were also grown in culture and treated for either 24 or 48 hours with DMSO or MOL-211 at a final concentration of 10 micromolar. Cells were harvested and manually homogenized in lysis buffer [25 mmol/L Tris-HCl (pH7.6), 150 mmol/L NaCl, 1% Nonidet P-40, 10% glycerol, 1 mmol/L dithiothreitol, and protease and phosphatase inhibitors], rocked for 30 minutes at 4° C., and centrifuged at 14,000 rpm for 20 min at 4° C. Protein concentration was determined by BioRad Protein Assays and lysates were subsequently subjected to SDS gel electrophoresis. Proteins were transferred to polyvinylidene fluoride membranes and probed with a primary antibody recognizing PD-L1 (Abcam, Cambridge, UK) and beta-actin. After incubation with anti-rabbit HRP-linked secondary antibody (Jackson ImmunoResearch Laboratories, West Grove, Pa.), proteins were detected using chemiluminescence (GE Healthcare, Chicago, Ill.).

**Q.** Which results are given for `CS(=O)(=O)Nc1cc(-c2ccc3ncnc(Nc4ccc(F)c(Cl)c4)c3c2)cnc1Cl` [MOL-211, N-(2-chloro-5-(4-((3-chloro-4-fluorophenyl)amino)quinazolin-6-yl)pyridin-3-yl)methanesulfonamide]?
**A.** Median ILS (median increase in lifespan) (KPC pancreatic tumors): 82%; ΔT/ΔC (Day 19) (KPC pancreatic tumors; ratio of tumor volume change (treated/control) from first to last day of treatment, MOL-211 50 mg/kg daily oral gavage, PD-1 antibody 10 mg/kg/kg IP): 21%; CRs (complete responders) (KPC pancreatic tumors; tumor below the limits of palpation (40 mg)): 0%; PRs (partial responders) (KPC pancreatic tumors; tumor regressed to 50% of baseline tumor volume): 0; calculated increase in lifespan (ILS) ([1]; C3H mice bearing SCC7 tumors, MOL-211 50 mg/kg, PD-1 antibody 10 mg/kg, FIG. 4A): 206%; reduction in mean tumor volumes ([1]; mice bearing SCC7 tumors, compared with PD-1 antibody monotherapy, FIG. 4B): superior to PD-1 antibody monotherapy; calculated increase in lifespan (ILS) ([2]; BALB/c mice bearing CT-26 tumors, MOL-211 50 mg/kg, PD-1 antibody 10 mg/kg): 22%; increase in survival ([2]; mice bearing CT-26 tumors): Neither single agent nor combination treatment with MOL-211 and PD-1 antibody resulted in a therapeutically meaningful increase in survival; reduction in tumor volume compared to vehicle control [3]: did not result in a statistically significant reduction in tumor volume; PD-L1 protein levels (western blot) (PD-L1): reduced PD-L1 protein levels
